The molecules below were run against LRRK2(G2019S mutation, GST-LRRK2(amino acids 970-2527)) (Homo sapiens (Human), UniProt Q5S007, G2019S) (assay: LRRK2 Km ATP LanthaScreen Assay). Settings: Km ATP (184 μM ATP solution), G2019S LRRK2, mean IC50.
Chain of LRRK2(G2019S mutation, GST-LRRK2(amino acids 970-2527)) (Q5S007 970-2527 G2019S): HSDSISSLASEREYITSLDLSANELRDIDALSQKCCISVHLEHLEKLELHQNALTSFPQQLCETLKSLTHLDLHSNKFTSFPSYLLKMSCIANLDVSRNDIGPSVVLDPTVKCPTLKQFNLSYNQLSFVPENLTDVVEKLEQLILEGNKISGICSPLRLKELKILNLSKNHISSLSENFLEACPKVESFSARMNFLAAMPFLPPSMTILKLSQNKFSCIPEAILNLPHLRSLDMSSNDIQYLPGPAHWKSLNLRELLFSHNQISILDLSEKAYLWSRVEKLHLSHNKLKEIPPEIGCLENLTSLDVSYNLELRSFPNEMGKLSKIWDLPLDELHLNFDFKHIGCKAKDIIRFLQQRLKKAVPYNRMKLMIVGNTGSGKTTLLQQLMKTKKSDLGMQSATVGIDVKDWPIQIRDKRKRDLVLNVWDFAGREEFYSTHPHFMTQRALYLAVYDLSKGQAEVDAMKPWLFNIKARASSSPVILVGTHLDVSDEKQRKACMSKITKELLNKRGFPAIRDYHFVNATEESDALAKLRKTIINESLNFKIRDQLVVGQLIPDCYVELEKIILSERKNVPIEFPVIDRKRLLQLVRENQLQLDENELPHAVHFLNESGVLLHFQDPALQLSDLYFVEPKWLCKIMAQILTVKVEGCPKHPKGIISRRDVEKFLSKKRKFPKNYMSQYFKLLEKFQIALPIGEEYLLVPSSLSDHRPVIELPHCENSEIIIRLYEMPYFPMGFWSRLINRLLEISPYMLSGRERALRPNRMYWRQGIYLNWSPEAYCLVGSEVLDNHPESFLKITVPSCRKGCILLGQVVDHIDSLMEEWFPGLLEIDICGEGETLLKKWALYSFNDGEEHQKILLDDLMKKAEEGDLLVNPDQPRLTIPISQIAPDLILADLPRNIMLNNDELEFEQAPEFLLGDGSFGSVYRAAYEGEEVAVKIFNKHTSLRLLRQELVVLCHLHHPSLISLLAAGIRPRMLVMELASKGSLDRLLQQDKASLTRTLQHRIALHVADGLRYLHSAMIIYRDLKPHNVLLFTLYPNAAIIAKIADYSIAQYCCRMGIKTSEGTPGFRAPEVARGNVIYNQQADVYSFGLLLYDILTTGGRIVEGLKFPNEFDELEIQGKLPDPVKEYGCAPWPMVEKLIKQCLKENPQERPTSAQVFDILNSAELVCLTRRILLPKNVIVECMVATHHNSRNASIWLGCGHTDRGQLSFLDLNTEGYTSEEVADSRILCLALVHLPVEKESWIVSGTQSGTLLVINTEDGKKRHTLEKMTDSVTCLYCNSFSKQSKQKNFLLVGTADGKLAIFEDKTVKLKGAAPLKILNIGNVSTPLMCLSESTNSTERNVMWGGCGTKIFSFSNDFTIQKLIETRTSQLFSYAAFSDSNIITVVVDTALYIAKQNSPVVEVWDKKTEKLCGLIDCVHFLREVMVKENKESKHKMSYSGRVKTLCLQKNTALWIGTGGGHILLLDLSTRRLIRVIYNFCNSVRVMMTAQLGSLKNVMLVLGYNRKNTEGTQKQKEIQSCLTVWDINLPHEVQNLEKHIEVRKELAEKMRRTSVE
Type: biochemical
Description: Unless otherwise noted, all LRRK2 IC50 data presented in tables refers to the LRRK2 Km ATP LanthaScreen™ Assay that is described in the Biological Assay section.
The data presented for the 5 mM and Km ATP LanthaScreen™ Assay represents mean IC50 values based on several test results and may have reasonable. deviations depending on the specific conditions and reagents used. Reagents for the LRRK2 5 mM and Km ATP LanthaScreen™ Assay were purchased from Life Technologies Corporation.
LRRK2 Km ATP LanthaScreen™ Assay
a) 400 nl of a 1:2.15 serial dilution of test compound(98 μM top assay concentration) is spotted via Labcyte Echo to certain wells in a 384 well black, untreated plate. Control wells contain 400 nl of either DMSO or 400 nl of a known inhibitor in DMSO.
b) 10 μl of a 2.5 nM LRRK2(G2019S mutation, GST-LRRK2(amino acids 970-2527)) enzyme solution in 1× assay buffer(50 mM Tris pH 8.5, 10 mM MgCl2, 0.01% Brij-35, 1 mM EGTA, 2 mM DTT, 0.05 mM NaVO4) is added to all wells.
c) A 30 minute room temperature incubation is followed by addition of 10 μl of 800 nM fluorescein labeled LRRKtide peptide substrate and 184 μM ATP solution in 1× assay buffer to all wells.
d) After a 60 minute room temperature incubation, 20 μl of TR-FRET Dilution Buffer(Invitrogen PV3756B) containing 4 nM Tb-labeled anti-phospho LRRKtide antibody and 20 mM EDTA is added to all wells.
e) Plates are incubated at room temperature for 1 hour and read on an Envision™ multi-mode plate reader with LanthaScreen™ settings. Results are analysed using Assay Data Analyzer.
Molecule `CC(C)Oc1cc2c(-c3cc(N4CCN(C(C)C)C(=O)C4)ncn3)n[nH]c2cc1F` [Example D69] has an IC50 of 3.09 nM. `CC(C)Oc1cc2c(-c3cc(N4CCN(C)C(=O)C4)ncn3)n[nH]c2cc1F` [Example D70] showed an IC50 of 2.19 nM. `COCCN1CCN(c2cc(-c3n[nH]c4cc(F)c(OC(C)C)cc34)ncn2)CC1=O` [Example D71] gave an IC50 of 1.63 nM. `CC(C)Oc1cc2c(-c3cc(N4C[C@@H](C)N(C)[C@@H](C)C4)ncn3)n[nH]c2cc1F` [Example D72] showed an IC50 of 1.33 nM. `COc1ccc2[nH]nc(-c3cc(N4C[C@H](F)[C@@H](F)C4)ncn3)c2c1` [Example E2] gave an IC50 of 68.6 nM. For `COc1ccc2[nH]nc(-c3cc(N4C[C@@H](C)O[C@@H](C)C4)ncn3)c2c1` [Example E3], the IC50 was 29.3 nM. `COc1ccc2[nH]nc(-c3cc(N4CCN(S(C)(=O)=O)CC4)ncn3)c2c1` [Example E4] was tested, and the IC50 was 35.4 nM. With `COc1ccc2[nH]nc(-c3cc(N4CCN(C(C)=O)CC4)ncn3)c2c1` [Example E5] the IC50 was 74.5 nM. `COc1ccc2[nH]nc(-c3cc(N4CC5CCC(C4)O5)ncn3)c2c1` [Example E6] gave an IC50 of 148 nM. `COc1ccc2[nH]nc(-c3cc(N4CCN(C)CC4)ncn3)c2c1` [Example E7] showed an IC50 of 28.2 nM. Molecule `CCN1CCN(c2cc(-c3n[nH]c4ccc(OC)cc34)ncn2)CC1` [Example E8] has an IC50 of 24.3 nM. In the case of `COc1ccc2[nH]nc(-c3cc(N4CCN(C5CC5)CC4)ncn3)c2c1` [Example E9], the IC50 is reported as 25.9 nM. Work on `COc1ccc2[nH]nc(-c3cc(N4CCNC(=O)C4)ncn3)c2c1` [Example E10] yielded an IC50 of 101 nM. Molecule `CCN1CCN(c2cc(-c3n[nH]c4ccc(OC)cc34)ncn2)CC1=O` [Example E11] has an IC50 of 78.3 nM. `COc1ccc2[nH]nc(-c3cc(N4CCO[C@H](C)C4)ncn3)c2c1` [Example E12] was tested, and the IC50 was 28.5 nM. For `COc1ccc2[nH]nc(-c3cc(N4CCO[C@@H](C)C4)ncn3)c2c1` [Example E13], the IC50 was 76.9 nM. For `CCOc1ccc2[nH]nc(-c3cc(N4CCN(S(C)(=O)=O)CC4)ncn3)c2c1` [Example F1], the IC50 was 15.4 nM. In the case of `CCOc1ccc2[nH]nc(-c3cc(N4C[C@@H](C)O[C@@H](C)C4)ncn3)c2c1` [Example F2], the IC50 is reported as 12.8 nM. In the case of `CCOc1ccc2[nH]nc(-c3cc(N4C[C@H](F)[C@@H](F)C4)ncn3)c2c1` [Example F3], the IC50 is reported as 26.6 nM. For `CCOc1ccc2[nH]nc(-c3cc(N4CCN(C)CC4)ncn3)c2c1` [Example F4], the IC50 was 26.9 nM. `CCOc1ccc2[nH]nc(-c3cc(N4CCN(C5CC5)CC4)ncn3)c2c1` [Example F5] gave an IC50 of 16.7 nM. `CCOc1ccc2[nH]nc(-c3cc(N4CCNC(=O)C4)ncn3)c2c1` [Example F6] was tested, and the IC50 was 63.9 nM. Work on `CCOc1ccc2[nH]nc(-c3cc(N4CCN(C)C(=O)C4)ncn3)c2c1` [Example F7] yielded an IC50 of 37.1 nM. `CCOc1ccc2[nH]nc(-c3cc(N4CCN(CC)CC4)ncn3)c2c1` [Example F8] was tested, and the IC50 was 12.6 nM. With `CCOc1ccc2[nH]nc(-c3cc(N4CCN(CC)C(=O)C4)ncn3)c2c1` [Example F9] the IC50 was 16.7 nM. Molecule `CCOc1ccc2[nH]nc(-c3cc(N4CC5CCC(C4)O5)ncn3)c2c1` [Example F10] has an IC50 of 32.7 nM. In the case of `CCOc1ccc2[nH]nc(-c3cc(N4CCN(C(C)=O)CC4)ncn3)c2c1` [Example F11], the IC50 is reported as 18 nM. `CCOc1ccc2[nH]nc(-c3cc(N4CCO[C@H](C)C4)ncn3)c2c1` [Example F12] showed an IC50 of 10.5 nM. `CCOc1ccc2[nH]nc(-c3cc(N4CCO[C@@H](C)C4)ncn3)c2c1` [Example F13] showed an IC50 of 41.2 nM. Molecule `COCCOc1ccc2[nH]nc(-c3cc(N4CCN(S(C)(=O)=O)CC4)ncn3)c2c1` [Example G1] has an IC50 of 64.7 nM. Molecule `COCCOc1ccc2[nH]nc(-c3cc(N4C[C@@H](C)O[C@@H](C)C4)ncn3)c2c1` [Example G2] has an IC50 of 76.6 nM. `COCCOc1ccc2[nH]nc(-c3cc(N4C[C@H](F)[C@@H](F)C4)ncn3)c2c1` [Example G3] gave an IC50 of 138 nM. In the case of `COCCOc1ccc2[nH]nc(-c3cc(N4CCN(C)CC4)ncn3)c2c1` [Example G4], the IC50 is reported as 67.2 nM. In the case of `COCCOc1ccc2[nH]nc(-c3cc(N4CCN(C5CC5)CC4)ncn3)c2c1` [Example G5], the IC50 is reported as 97 nM. With `COCCOc1ccc2[nH]nc(-c3cc(N4CCNC(=O)C4)ncn3)c2c1` [Example G6] the IC50 was 136 nM. `COCCOc1ccc2[nH]nc(-c3cc(N4CCN(C)C(=O)C4)ncn3)c2c1` [Example G7] was tested, and the IC50 was 69 nM. In the case of `CCN1CCN(c2cc(-c3n[nH]c4ccc(OCCOC)cc34)ncn2)CC1` [Example G8], the IC50 is reported as 97 nM. `CCN1CCN(c2cc(-c3n[nH]c4ccc(OCCOC)cc34)ncn2)CC1=O` [Example G9] was tested, and the IC50 was 107 nM. `COCCOc1ccc2[nH]nc(-c3cc(N4CCO[C@H](C)C4)ncn3)c2c1` [Example G10] was tested, and the IC50 was 42.8 nM. With `COCCOc1ccc2[nH]nc(-c3cc(N4CCO[C@@H](C)C4)ncn3)c2c1` [Example G11] the IC50 was 101 nM. `COCCOc1ccc2[nH]nc(-c3cc(N4CC5CCC(C4)O5)ncn3)c2c1` [Example G12] was tested, and the IC50 was 154 nM. Molecule `COCCOc1ccc2[nH]nc(-c3cc(N4CCN(C(C)=O)CC4)ncn3)c2c1` [Example G13] has an IC50 of 128 nM. `COC[C@@H](C)Oc1ccc2[nH]nc(-c3cc(N4CCOCC4)ncn3)c2c1` [Example H1] was tested, and the IC50 was 56.2 nM. Work on `COC[C@@H](C)Oc1ccc2[nH]nc(-c3cc(N4C[C@@H](C)O[C@@H](C)C4)ncn3)c2c1` [Example H2] yielded an IC50 of 39.1 nM. Work on `COC[C@@H](C)Oc1ccc2[nH]nc(-c3cc(N4CCO[C@H](C)C4)ncn3)c2c1` [Example H3] yielded an IC50 of 35.5 nM. In the case of `COC[C@H](C)Oc1ccc2[nH]nc(-c3cc(N4C[C@@H](C)O[C@@H](C)C4)ncn3)c2c1` [Example H5], the IC50 is reported as 1.7 nM. With `COC[C@H](C)Oc1ccc2[nH]nc(-c3cc(N4CCN(S(C)(=O)=O)CC4)ncn3)c2c1` [Example H6] the IC50 was 4.5 nM. For `COC[C@H](C)Oc1ccc2[nH]nc(-c3cc(N4CCN(C)CC4)ncn3)c2c1` [Example H7], the IC50 was 2.08 nM. Work on `COC[C@H](C)Oc1ccc2[nH]nc(-c3cc(N4CC5CCC(C4)O5)ncn3)c2c1` [Example H8] yielded an IC50 of 9.93 nM. In the case of `COC[C@H](C)Oc1ccc2[nH]nc(-c3cc(N4CCC5(CCC(=O)N5)CC4)ncn3)c2c1` [Example H9], the IC50 is reported as 4.36 nM. `COC[C@H](C)Oc1ccc2[nH]nc(-c3cc(N4CCC5(CC4)CC(=O)N(C)C5)ncn3)c2c1` [Example H10] was tested, and the IC50 was 2.87 nM. `COC[C@H](C)Oc1ccc2[nH]nc(-c3cc(N4CCC5(CC4)CNC(=O)C5)ncn3)c2c1` [Example H11] was tested, and the IC50 was 2.85 nM. For `COC[C@H](C)Oc1ccc2[nH]nc(-c3cc(N4CC[C@@H](OC)C4)ncn3)c2c1` [Example H12], the IC50 was 4.8 nM. Molecule `COC[C@H](C)Oc1ccc2[nH]nc(-c3cc(N4CC[C@H](OC)C4)ncn3)c2c1` [Example H13] has an IC50 of 5.27 nM. `COC[C@H](C)Oc1ccc2[nH]nc(-c3cc(N4CCC5(CCCO5)CC4)ncn3)c2c1` [Example H14] gave an IC50 of 2.02 nM. `COC[C@H](C)Oc1ccc2[nH]nc(-c3cc(N4CCC5(CCN(C)C5=O)CC4)ncn3)c2c1` [Example H15] showed an IC50 of 3.71 nM. Molecule `COC[C@H](C)Oc1ccc2[nH]nc(-c3cc(N4CCC5(CCNC5=O)CC4)ncn3)c2c1` [Example H16] has an IC50 of 2.83 nM. `COC[C@H](C)Oc1ccc2[nH]nc(-c3cc(N4CCO[C@H](C)C4)ncn3)c2c1` [Example H17] gave an IC50 of 2.79 nM. In the case of `c1cnc(-c2ccc3[nH]nc(-c4cc(N5CCOCC5)ncn4)c3c2)cn1` [Example I1], the IC50 is reported as 34.7 nM. `CS(=O)(=O)N1CCN(c2cc(-c3n[nH]c4ccc(-c5cnccn5)cc34)ncn2)CC1` [Example I2] was tested, and the IC50 was 19.2 nM. Molecule `CC(C)Oc1ccc2[nH]nc(-c3cc(N4CCC(O)CC4)ncn3)c2c1` [Example J1] has an IC50 of 5.9 nM. With `CC(C)Oc1ccc2[nH]nc(-c3cc(N4CCN(CCO)CC4)ncn3)c2c1` [Example J2] the IC50 was 7.4 nM. `CC(C)Oc1ccc2[nH]nc(-c3cc(N4CCCCC4)ncn3)c2c1` [Example J3] showed an IC50 of 10.6 nM. `CC(C)Oc1ccc2[nH]nc(-c3cc(N4CCC4)ncn3)c2c1` [Example J4] gave an IC50 of 7.9 nM. In the case of `CC(C)Oc1ccc2[nH]nc(-c3cc(N4CCCC4)ncn3)c2c1` [Example J5], the IC50 is reported as 13.9 nM. `CC(C)Oc1ccc2[nH]nc(-c3cc(N4C[C@@H](C)O[C@@H](C)C4)ncn3)c2c1` [Example J6] gave an IC50 of 7.8 nM. In the case of `CC(C)Oc1ccc2[nH]nc(-c3cc(N4C[C@H](O)[C@@H](N(C)C)C4)ncn3)c2c1` [Example J7], the IC50 is reported as 15.3 nM. Work on `CO[C@H]1CN(c2cc(-c3n[nH]c4ccc(OC(C)C)cc34)ncn2)C[C@@H]1O` [Example J8] yielded an IC50 of 18.6 nM. In the case of `CC(C)Oc1ccc2[nH]nc(-c3cc(N4CCO[C@H](C)C4)ncn3)c2c1` [Example J9], the IC50 is reported as 9.2 nM. `CC(C)Oc1ccc2[nH]nc(-c3cc(N4C[C@H](F)[C@@H](F)C4)ncn3)c2c1` [Example J10] showed an IC50 of 11.1 nM. `CC(C)Oc1ccc2[nH]nc(-c3cc(N4CCCN(S(C)(=O)=O)CC4)ncn3)c2c1` [Example J11] showed an IC50 of 51.3 nM. `CC(C)Oc1ccc2[nH]nc(-c3cc(N4CC(n5cccn5)C4)ncn3)c2c1` [Example J12] gave an IC50 of 22.6 nM. Work on `CC(C)Oc1ccc2[nH]nc(-c3cc(N4CC[S+]([O-])CC4)ncn3)c2c1` [Example J13] yielded an IC50 of 21 nM.

Source: patent publication US9416126B2, “Compounds inhibiting leucine-rich repeat kinase enzyme activity” (Merck Sharp & Dohme Corp., priority 2013, dated 2016)
